{
  "source": "patent US20160089365A1",
  "about": "“IMMUNOSTIMULATORY COMPOUND” (Eisai R&D Management Co., Ltd., priority 2014, published 2016)",
  "key": {"[1]": {"system": "BNL 1MEA.7R.1 murine hepatocellular carcinoma xenografts", "experiment": "Antitumor effects in BNL 1MEA.7R.1 murine hepatocellular carcinoma xenografts in athymic mice", "type": "in vivo, Mouse (CAnN.Cg-Foxn1nu/CrlCrlj", "conditions": "oral 3 and 10 mg/kg once daily for 7 days, Day 8", "description": "The BNL 1MEA.7R. 1 murine hepatocellular carcinoma cells were cultured in Dulbecco's minimal essential medium (DMEM) supplemented with 10% heat-inactivated (56° C., 30 minutes) fetal bovine serum (FBS) and 100 U/mL penicillin, 100 μg/mL streptomycin, 1-glutamine (2 mmol/L) in humidified atmosphere of 5% CO2 at 37° C. This tumor cell line was developed from BALB/c mouse. The cells were washed with phosphate buffered saline (PBS), harvested with 0.25% trypsin-EDTA, and suspended with 50% BD Matrigel™ (BD biosciences) in the Hank's balanced salt solution (HBSS) at a density of 1×10^8 cells/mL. A 0.1 mL aliquot of the cell suspension was inoculated subcutaneously into the right flank of each mouse. Fifty days after the inoculation (Day 1), 15 out of 25 athymic mice and 25 out of 33 wild-type mice were selected based on their tumor volumes, shapes of tumors, physical condition, and body weights. […]\nLenvatinib mesilate (3 and 10 mg/kg) or vehicle was orally administered at 0.1 mL/10 g body weight, once daily for 7 days (Day 1-7). The tumor volume and body weight of mice were measured on Day 1, 3, 6, and 8. […]\n(§1) Data are expressed as mean±SD. The differences in relative tumor volume on Day 8 between vehicle- and lenvatinib mesilate-treated groups (3 and 10 mg/kg) in athymic and wild-type mice were analyzed by one-way analysis of variance followed by the Dunnett multiple comparison test, respectively. […]"}, "[2]": {"system": "BNL 1MEA.7R.1 murine hepatocellular carcinoma xenografts", "experiment": "Antitumor effects in BNL 1MEA.7R.1 murine hepatocellular carcinoma xenografts in wild-type mice", "type": "in vivo, Mouse (BALB/cAnNCrlCrlj", "conditions": "Day 8", "description": "The BNL 1MEA.7R. 1 murine hepatocellular carcinoma cells were cultured in Dulbecco's minimal essential medium (DMEM) supplemented with 10% heat-inactivated (56° C., 30 minutes) fetal bovine serum (FBS) and 100 U/mL penicillin, 100 μg/mL streptomycin, 1-glutamine (2 mmol/L) in humidified atmosphere of 5% CO2 at 37° C. This tumor cell line was developed from BALB/c mouse. The cells were washed with phosphate buffered saline (PBS), harvested with 0.25% trypsin-EDTA, and suspended with 50% BD Matrigel™ (BD biosciences) in the Hank's balanced salt solution (HBSS) at a density of 1×10^8 cells/mL. A 0.1 mL aliquot of the cell suspension was inoculated subcutaneously into the right flank of each mouse. Fifty days after the inoculation (Day 1), 15 out of 25 athymic mice and 25 out of 33 wild-type mice were selected based on their tumor volumes, shapes of tumors, physical condition, and body weights. Then the selected athymic and wild-type mice were randomly divided into 3 groups (Group 1-3 in the following table “Treatment Groups”) and 5 groups (Group 4-8), respectively. Animals assigned to Group 4, 6, 7, and 8 were used in Ex. 1 and 2. The mean tumor volumes of athymic and wild-type mice assigned to 8 groups were 169.5 and 157.5 mm^3, respectively, on Day 1.\n(§2) Lenvatinib mesilate (3 and 10 mg/kg) or vehicle was orally administered at 0.1 mL/10 g body weight, once daily for 7 days (Day 1-7). The tumor volume and body weight of mice were measured on Day 1, 3, 6, and 8.\nTumor volume (mm^3)=length (mm)×width^2 (mm^2)×1/2\nas §1\nTo compare antitumor activities of lenvatinib mesilate between different strains, differences in % TGI of lenvatinib mesilate between athymic and wild-type mice at each dose were analyzed by the unpaired t test."}, "[3]": {"system": "tumor-associated macrophage (TAM) population in tumor", "experiment": "Immune population analysis in BNL 1MEA.7R.1 xenograft tumor of wild-type mice by flow cytometry", "type": "in vivo, Mouse (BALB/cAnNCrlCrlj", "conditions": "oral 10 mg/kg once a day for 7 days, Day 8", "description": "Half-cut tumor samples collected from BNL 1MEA.7R.1 xenograft model in wild-type mice 1 day after the administration of vehicle or lenvatinib mesilate (10 mg/kg) in Referential Ex. 1 (Group 4, 6, 7, and 8) were minced with a razor on ice. The tumor fragments were digested with collagenase (1900 U/mL) and deoxyribonuclease I (160 KIU/mL) in HBSS for 1 hour at 37° C. with magnetic stirring in flasks. After filtering through cell strainer (pore size 70 μm), harvested cells were washed 3 times with flow cytometry buffer (PBS supplemented with 0.5% bovine serum albumin and 2 mmol/L EDTA). Cells were resuspended with 200 μL of FCM buffer containing 5 μg/mL Mouse BD Fc Block™ (BD biosciences), and incubated at 4° C. for 10 minutes. Antibody cocktail (dilution; 1:2 in FCM buffer) 1 and 2 were prepared as below.\nOne hundred microliters of cell suspension was mixed with 100 μL of the antibody cocktail 1 or 2 in each well of two 96-well cell culture round bottom plates (Corning Incorporated), and incubated at 4° C. for 30 minutes in a light protected. […] Data were analyzed by FCM analysis software FlowJo 7.6.5 (Tree Star, Inc.).\nData are expressed as mean±SD. The differences in percentage of target cells in CD45^+ cells between vehicle- and lenvatinib mesilate-treated groups were analyzed by the unpaired t test."}, "[4]": {"system": "IFN-γ+ cells in CD8+ T cells of draining lymph nodes", "experiment": "IFN-γ staining analysis of CD8+ T cells derived from draining lymph nodes in BNL 1MEA.7R.1 xenografts in wild-type mice", "type": "in vivo, Mouse (BALB/cAnNCrlCrlj", "conditions": "oral 10 mg/kg once a day for 7 days, Day 8", "description": "Draining lymph nodes derived from BNL 1MEA.7R. 1 xenograft model in wild-type mice 1 day after once-daily oral administration of vehicle or lenvatinib mesilate (10 mg/kg) for 7 days in Referential Ex. 1 were isolated and mashed by a 5-mL syringe. The cell number in suspension was calculated and adjusted to 2.0×10^6 cells/mL with RPMI1640 containing 10% FBS, 100 U/mL penicillin, and 100 μg/mL streptomycin. One hundred microliters per well of the resultant cell suspension were plated in a 96-well cell culture cluster round bottom plate (Corning Incorporated) and cultured with BD Goldi-Stop™ (final concentration [conc.] 4 μL/6 mL) for 5 hours in 5% CO2 at 37° C. […] After washing with 200 μL of BD Perm/Wash buffer 2 times, the resultant cells were resuspended with 200 μL of BD Perm/Wash buffer, and analyzed to detect percentage of IFN-γ-positive cells in CD3- and CD8-positive cells by FACSAriaII SORP cell sorter (Becton, Dickinson and company) with BD FACSDiva 6.1.3 software (Becton, Dickinson and company). […]\nData are expressed as mean±SD. The differences in percentage of IFN-γ-positive cells in CD8^+ T cells between vehicle- and lenvatinib mesilate-treated groups were analyzed by the unpaired t test"}, "[5]": {"experiment": "Body weight of mice during the xenograft study", "type": "in vivo, Mouse", "conditions": "athymic and wild-type mice, oral 3 and 10 mg/kg once daily for 7 days, during the study period", "description": "as §2"}},
  "note": "Entries after “also recorded” stand apart in the source; their conditions may differ.",
  "data": [
    {"smiles": "COc1cc2nccc(Oc3ccc(NC(=O)NC4CC4)c(Cl)c3)c2cc1C(N)=O", "note": "[lenvatinib mesilate, 4-(3-chloro-4-(cyclopropylaminocarbonyl)aminophenoxy)-7-methoxy-6-quinolinecarboxamide]", "values": [
      {"measurement": "tumor volume compared to vehicle", "setting": "[1]", "value": "no significant difference; also recorded: only tumor growth delay"},
      {"measurement": "% TGI in wild-type mice compared to athymic mice at each dose", "setting": "[2]; oral 3 and 10 mg/kg once daily for 7 days", "value": "significantly larger"},
      {"measurement": "tumor shrinkage in individual animals", "setting": "[2]; wild-type mice, both treatment groups (3 and 10 mg/kg)", "value": "tumors from all animals shrank"},
      {"measurement": "tumor volume compared to vehicle", "setting": "[2]; wild-type mice, oral 3 and 10 mg/kg once daily for 7 days", "value": "significant reduction in tumor volume"},
      {"measurement": "percentage of TAM population (CD45+CD11b+Ly6G-F4/80+Ly6Clow) in total CD45+ cells compared to vehicle", "setting": "[3]", "value": "significant reduction"},
      {"measurement": "percentage of immature TAM (CD45+CD11b+Ly6G-F4/80-Ly6Chigh) in total CD45+ cells compared to vehicle", "setting": "[3]", "value": "increased"},
      {"measurement": "percentage of IFN-γ+ cells in CD8+ T cells in dLN compared to vehicle", "setting": "[4]", "value": "significantly increased"},
      {"measurement": "body weight loss", "setting": "[5]", "value": "Any severe body weight loss was not observed"}
    ]}
  ]
}
